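Dose response: 5 concentrations. Exposure: 48 h. Format: 96-well plates. Endpoint: linear interpolation; highest concentration if not reached. At the TGI there is no net growth.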
What was measured:
Assay in all cases: inhibition of tumour cell growth, NCI panel, 48 h
OVCAR-3 ovarian = tested on: OVCAR-3 ovarian
EKVX NSCLC = tested on: EKVX NSCLC
HCT-116 colon = tested on: HCT-116 colon
BT-549 breast = tested on: BT-549 breast
SF-295 CNS = tested on: SF-295 CNS
SNB-75 CNS = tested on: SNB-75 CNS
SK-OV-3 ovarian = tested on: SK-OV-3 ovarian
CCRF-CEM leukemia = tested on: CCRF-CEM leukemia
SN12C renal = tested on: SN12C renal
SF-539 CNS = tested on: SF-539 CNS
IGROV1 ovarian = tested on: IGROV1 ovarian
OVCAR-4 ovarian = tested on: OVCAR-4 ovarian
MALME-3M melanoma = tested on: MALME-3M melanoma
UO-31 renal = tested on: UO-31 renal
DU-145 prostate = tested on: DU-145 prostate
UACC-257 melanoma = tested on: UACC-257 melanoma
NCI-H460 lung = tested on: NCI-H460 lung
CAKI-1 renal = tested on: CAKI-1 renal
SK-MEL-28 melanoma = tested on: SK-MEL-28 melanoma
T-47D breast = tested on: T-47D breast

| Structure (SMILES) | TGI (OVCAR-3 ovarian) [µM] | TGI (EKVX NSCLC) [µM] | TGI (HCT-116 colon) [µM] | TGI (BT-549 breast) [µM] | TGI (SF-295 CNS) [µM] | TGI (SNB-75 CNS) [µM] | TGI (SK-OV-3 ovarian) [µM] | TGI (CCRF-CEM leukemia) [µM] | TGI (SN12C renal) [µM] | TGI (SF-539 CNS) [µM] | TGI (IGROV1 ovarian) [µM] | TGI (OVCAR-4 ovarian) [µM] | TGI (MALME-3M melanoma) [µM] | TGI (UO-31 renal) [µM] | TGI (DU-145 prostate) [µM] | TGI (UACC-257 melanoma) [µM] | TGI (NCI-H460 lung) [µM] | TGI (CAKI-1 renal) [µM] | TGI (SK-MEL-28 melanoma) [µM] | TGI (T-47D breast) [µM] |
| --- | --- | --- | --- | --- | --- | --- | --- | --- | --- | --- | --- | --- | --- | --- | --- | --- | --- | --- | --- | --- |
| CC12CCC(=O)N1c1cncnc1N2 (stereo not drawn) | > 10 | > 10 | > 10 | > 10 | > 10 | > 10 | > 10 | > 10 | > 10 | > 10 | > 10 | > 10 | > 10 | > 10 | > 10 | > 10 | > 10 | – | – | – |
| CCOC(=O)Cn1c2ccc(Br)cc2c2nc3ccccc3nc21 | > 100 | – | > 100 | – | > 100 | > 100 | – | > 100 | > 100 | – | > 100 | – | – | > 100 | > 100 | > 100 | – | > 100 | > 100 | > 100 |
| CN/C=C(\C(=O)c1ccc(OC)c(OC)c1)c1ccc(OC)cc1 | – | > 100 | 18.1 | – | > 100 | > 100 | > 100 | 23.8 | 31.7 | 14.1 | > 100 | 80.1 | – | 48.6 | – | 39.5 | 63.2 | – | 39.7 | – |
| C=CCC1(Sc2ccccn2)Sc2ccc3ccccc3c2-c2c(ccc3ccccc23)S1 | > 100 | > 100 | > 100 | – | > 100 | > 100 | > 100 | > 100 | > 100 | > 100 | > 100 | > 100 | > 100 | > 100 | > 100 | > 100 | > 100 | > 100 | > 100 | > 100 |
| CN(C)Cc1cc(C(=O)/C=C/c2ccc(Cl)c(Cl)c2)cc(CN(C)C)c1O | 5.46 | 20.8 | 12.1 | – | 12.1 | – | – | 11.7 | 7.83 | 8.93 | 12.4 | 15.4 | 10.4 | 5.39 | 15.9 | 5.1 | 7.9 | 4.08 | 10.3 | 19.9 |
| Oc1[nH]c(=S)[nH]c1/C=C1/C(c2ccccc2)=Nc2ccccc21 | 30 | 36.4 | 27.5 | 28.6 | 26.5 | 28.8 | – | – | 38.7 | 31.2 | 30.3 | 57.4 | 26.4 | 21.4 | – | 29 | 27.6 | 37.5 | 30.3 | – |
| CCOC(=O)Cc1nnc2n(-c3ccccc3)c(=O)c3ccccc3n12 | > 100 | > 100 | > 100 | – | > 100 | > 100 | > 100 | > 100 | > 100 | > 100 | > 100 | > 100 | > 100 | > 100 | > 100 | > 100 | > 100 | 43.3 | > 100 | > 100 |
| CCOC(=O)C(NC(C)=O)(Nc1ccc(S(N)(=O)=O)cc1)C(F)(F)F (stereo not drawn) | > 100 | > 100 | > 100 | – | > 100 | > 100 | > 100 | > 100 | > 100 | > 100 | > 100 | > 100 | > 100 | > 100 | > 100 | > 100 | > 100 | > 100 | > 100 | > 100 |
| N#CC(C#N)=C/C=C/c1c(Cl)cccc1Cl | 5.67 | > 10 | 2.62 | – | 4.38 | > 10 | 5.64 | > 10 | 3.9 | 2.96 | 4.27 | 3.49 | 3.15 | 3.39 | 3.2 | 2.99 | 4.08 | 4.55 | 3.05 | 6.19 |
| O=C1Cc2nc(CO)c(CO)c(CO)c2CO1 | > 100 | > 100 | > 100 | – | > 100 | > 100 | > 100 | > 100 | > 100 | > 100 | > 100 | – | > 100 | > 100 | – | > 100 | > 100 | > 100 | > 100 | – |
| CNC1c2ccccc2C(=O)c2cc3c(cc21)OCCOCCOCCOCCO3 (stereo not drawn) | – | > 100 | > 100 | – | > 100 | > 100 | > 100 | 46.1 | > 100 | > 100 | > 100 | > 100 | – | > 100 | – | > 100 | > 100 | – | > 100 | > 100 |
| O=C1C2CCCCC2C(=O)N1n1c(-c2ccccc2)n[nH]c1=O (stereo not drawn) | > 100 | > 100 | > 100 | > 100 | > 100 | > 100 | > 100 | > 100 | > 100 | > 100 | > 100 | > 100 | > 100 | > 100 | – | > 100 | > 100 | > 100 | – | > 100 |
| CNC(=O)C1(C#N)C(c2ccccc2)C(C#N)(C(=O)NC)C1c1ccccc1 (stereo not drawn) | > 100 | > 100 | > 100 | – | > 100 | > 100 | > 100 | > 100 | > 100 | > 100 | > 100 | > 100 | – | > 100 | – | – | > 100 | > 100 | > 100 | > 100 |
